Measured values taken from the NIST ThermoML archive (doi:10.1016/j.fluid.2017.01.024).
“And” between values parts separate entries of the source, which are not always exact repeats. Identical values can stand only once. Numbers after ± are expanded uncertainties.

Conditions: Liquid, Closed cell (Static) method

Row | Compound | vapor or sublimation pressure (283.15 K) | vapor or sublimation pressure (288.15 K) [kPa] | vapor or sublimation pressure (293.15 K) | vapor or sublimation pressure (293.16 K) [kPa] | vapor or sublimation pressure (298.15 K) [kPa] | vapor or sublimation pressure (303.15 K) | vapor or sublimation pressure (308.16 K) [kPa] | vapor or sublimation pressure (313.15 K) [kPa] | vapor or sublimation pressure (313.16 K) [kPa] | vapor or sublimation pressure (318.16 K) [kPa] | vapor or sublimation pressure (323.15 K) | vapor or sublimation pressure (288.16 K) [kPa] | vapor or sublimation pressure (298.14 K) [kPa] | vapor or sublimation pressure (308.15 K) [kPa] | vapor or sublimation pressure (318.15 K) [kPa]
1 | C=C(F)C(F)(F)F [2,3,3,3-tetrafluoro-1-propene] | 437.4 ± 1.2 kPa and 437.4 ± 1.6 kPa | 509.9 ± 1.3 | 591.7 ± 2 kPa | 591.7 ± 1.4 | 681.9 ± 1.4 | 782.5 ± 2.5 kPa and 782.5 ± 1.6 kPa | 893.6 ± 1.7 | 1017.8 ± 3.2 | 1017.8 ± 1.8 | 1153.2 ± 2 | 1301.4 ± 4.1 kPa and 1301.4 ± 2.2 kPa | – | – | – | –
2 | FCF [difluoromethane] | 1107.3 ± 3.5 kPa | – | 1474 ± 4.7 kPa | – | – | 1925.8 ± 6.1 kPa | – | 2476.2 ± 7.8 | – | – | 3138 ± 9.8 kPa | – | – | – | –
3 | CCF [fluoroethane] | 601.4 ± 1.4 kPa and 601.4 ± 2 kPa | – | 805.6 ± 2.6 kPa and 805.6 ± 1.6 kPa | – | – | 1057.4 ± 3.3 kPa and 1057.4 ± 1.9 kPa | – | 1363.6 ± 4.3 | 1363.6 ± 2.3 | – | 1730.6 ± 5.4 kPa and 1730.6 ± 2.8 kPa | 698.2 ± 1.5 | 924.8 ± 1.7 | 1203.4 ± 2.1 | 1539 ± 2.5
